Source: patent US20240270741A1 (Cogent Biosciences, Inc., priority 2023, published 2024)

Molecular target: FGFR2 (Homo sapiens, UniProt P21802)
Assay: FGFR wild type enzyme assay (HTRF KinEASE-TK), FGFR2
Details: Enz FGFR2 (nM), FGFR2 wild type enzyme assay

Sequence of FGFR2 (P21802 399-821 limits assumed): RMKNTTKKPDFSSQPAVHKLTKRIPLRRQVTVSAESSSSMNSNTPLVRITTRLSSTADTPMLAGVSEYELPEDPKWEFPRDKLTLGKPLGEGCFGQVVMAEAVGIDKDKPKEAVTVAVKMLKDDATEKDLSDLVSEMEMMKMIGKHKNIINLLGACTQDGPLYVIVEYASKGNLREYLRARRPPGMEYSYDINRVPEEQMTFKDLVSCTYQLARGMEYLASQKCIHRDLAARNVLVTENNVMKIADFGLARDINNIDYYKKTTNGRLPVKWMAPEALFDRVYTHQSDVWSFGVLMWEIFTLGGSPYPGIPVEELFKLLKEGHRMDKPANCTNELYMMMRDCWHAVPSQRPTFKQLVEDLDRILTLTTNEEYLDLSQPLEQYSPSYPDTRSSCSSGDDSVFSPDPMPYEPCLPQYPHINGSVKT

| IC50 | SMILES |
| --- | --- |
| 14 nM | CC(=O)N1CCC(n2ncc(-c3cc(Sc4nccc(C)c4F)c4c(C#N)cnn4c3)c2C)CC1 [Example 382, 6-(1-(1-acetylpiperidin-4-yl)-5-methyl-1H-pyrazol-4-yl)-4-((3-fluoro-4-methylpyridin-2-yl)thio)pyrazolo[1,5-a]pyridine-3-carbonitrile] |
| 1 nM | CC(=O)N[C@H]1CC[C@@H](n2ncc(-c3cc(Sc4nc(N)ccc4F)c4c(C#N)cnn4c3)c2C)CC1 [Example 383, N-((1s,4s)-4-(4-(4-((6-amino-3-fluoropyridin-2-yl)thio)-3-cyanopyrazolo[1,5-a]pyridin-6-yl)-5-methyl-1H-pyrazol-1-yl)cyclohexyl)acetamide] |
| 1 nM | CC(=O)N[C@H]1CC[C@@H](n2ncc(-c3cc(Sc4nc(F)ccc4F)c4c(C#N)cnn4c3)c2C)CC1 [Example 384, N-((1s,4s)-4-(4-(3-cyano-4-((3,6-difluoropyridin-2-y)thio)pyrazolo[1,5-a]pyridin-6-yl)-5-methyl-1H-pyrazol-1-yl)cyclohexyl)acetamide] |
| 1.5 nM | Cc1c(-c2cc(Sc3cccc(Cl)c3C#N)c3c(C#N)cnn3c2)cnn1C1CCN(C)CC1 [Example 385, 4-((3-chloro-2-cyanophenyl)thio)-6-(5-methyl-1-(1-methylpiperidin-4-yl)-1H-pyrazol-4-yl)pyrazolo[1,5-a]pyridine-3-carbonitrile] |
| 5 nM | COc1cc(Sc2cc(-c3cnn(C4CCN(C)CC4)c3C)cn3ncc(C#N)c23)c(C#N)cc1F [Example 386, 4-((2-cyano-4-fluoro-5-methoxyphenyl)thio)-6-(5-methyl-1-(1-methylpiperidin-4-yl)-1H-pyrazol-4-yl)pyrazolo[1,5-a]pyridine-3-carbonitrile] |
| 1 nM | Cc1c(-c2cc(Sc3ccc(F)cc3C#N)c3c(C#N)cnn3c2)cnn1[C@H]1CCN(C)C(C)(C)C1 [Example 387, (S)-4-((2-cyano-4-fluorophenyl)thio)-6-(5-methyl-1-(1,2,2-trimethylpiperidin-4-yl)-1H-pyrazol-4-yl)pyrazolo[1,5-a]pyridine-3-carbonitrile] |
| 0.5 nM | Cc1c(-c2cc(Sc3ccc(F)cc3C#N)c3c(C#N)cnn3c2)cnn1[C@@H]1CCN(C)C(C)(C)C1 [Example 388, (R)-4-((2-cyano-4-fluorophenyl)thio)-6-(5-methyl-1-(1,2,2-trimethylpiperidin-4-yl)-1H-pyrazol-4-yl)pyrazolo[1,5-a]pyridine-3-carbonitrile] |
| 5 nM | Cc1c(-c2cc(Sc3ncc(F)cc3F)c3c(C#N)cnn3c2)cnn1[C@H]1CCN(C)C(C)(C)C1 [Example 389, (S)-4-((3,5-difluoropyridin-2-yl)thio)-6-(5-methyl-1-(1,2,2-trimethylpiperidin-4-yl)-1H-pyrazol-4-yl)pyrazolo[1,5-a]pyridine-3-carbonitrile] |
| 42 nM | Cc1c(-c2cc(Sc3ncc(F)cc3F)c3c(C#N)cnn3c2)cnn1[C@@H]1CCN(C)C(C)(C)C1 [Example 390, (R)-4-((3,5-difluoropyridin-2-yl)thio)-6-(5-methyl-1-(1,2,2-trimethylpiperidin-4-yl)-1H-pyrazol-4-yl)pyrazolo[1,5-a]pyridine-3-carbonitrile] |
| 1 nM | Cc1c(-c2cc(Sc3ccc(F)cc3C#N)c3c(C#N)cnn3c2)cnn1[C@H]1CC[C@H](N(C)CCO)CC1 [Example 391, 4-((2-cyano-4-fluorophenyl)thio)-6-(1-((1r,4r)-4-((2-hydroxyethyl)(methyl)ami-no)cyclohexyl)-5-methyl-1H-pyrazol-4-yl)pyrazolo[1,5-a]pyridine-3-carbonitrile] |
| 12 nM | CN(C)[C@H]1CC[C@@H](n2cc(-c3cc(Sc4ncccc4F)c4c(C#N)cnn4c3)nn2)CC1 [Example 392, 6-[1-[4-(dimethylamino)cyclohexyl]triazol-4-yl]-4-[(3-fluoro-2-pyridyl)sulfanyl] pyrazolo [1,5-a]pyridine-3-carbonitrile] |
| 6 nM | CC(=O)N[C@H]1CC[C@@H](n2cc(-c3cc(Sc4ncccc4F)c4c(C#N)cnn4c3)c(C)n2)CC1 [Example 393, N-((1s,4s)-4-(4-(3-cyano-4-((3-fluoropyridin-2-yl)thio)pyrazolo[1,5-a]pyridin-6-yl)-3-methyl-1H-pyrazol-1-yl)cyclohexyl)acetamide] |
| 3 nM | CC(=O)N[C@H]1CC[C@@H](n2cc(-c3cc(Sc4ccccc4C#N)c4c(C#N)cnn4c3)c(C)n2)CC1 [Example 394, N-((1s,4s)-4-(4-(3-cyano-4-((2-cyanophenyl)thio)pyrazolo [1,5-a]pyridin-6-yl)-3-methyl-1H-pyrazol-1-yl)cyclohexyl)acetamide] |
| 3 nM | CN1CCC(n2ncc(-c3cc(Sc4ncccc4F)c4c(C#N)cnn4c3)c2Cl)CC1 [Example 395, 6-(5-chloro-1-(1-methylpiperidin-4-yl)-1H-pyrazol-4-yl)-4-((3-fluoropyridin-2-yl)thio)pyrazolo[1,5-a]pyridine-3-carbonitrile] |
| 1 nM | CN1CCC(n2ncc(-c3cc(Sc4ccccc4C#N)c4c(C#N)cnn4c3)c2Cl)CC1 [Example 396, 6-(5-chloro-1-(1-methylpiperidin-4-yl)-1H-pyrazol-4-yl)-4-((2-cyanophenyl)thio)pyrazolo [1,5-a]pyridine-3-carbonitrile] |
| 5 nM | CC(=O)N1CCC(n2ncc(-c3cc(Sc4ncccc4F)c4c(C#N)cnn4c3)c2F)CC1 [Example 397, 6-(1-(1-acetylpiperidin-4-yl)-5-fluoro-1H-pyrazol-4-yl)-4-((3-fluoropyridin-2-yl)thio)pyrazolo[1,5-a]pyridine-3-carbonitrile] |
| 2 nM | CC(=O)N1CCC(n2ncc(-c3cc(Sc4ccccc4C#N)c4c(C#N)cnn4c3)c2F)CC1 [Example 398, 6-(1-(1-acetylpiperidin-4-yl)-5-fluoro-1H-pyrazol-4-yl)-4-((2-cyanophenyl)thio)pyrazolo [1,5-a]pyridine-3-carbonitrile] |

Further lines, the compound ahead of its results:

| SMILES | IC50 |
| --- | --- |
| CN1CCC(n2ncc(-c3cc(Sc4ncccc4F)c4c(C#N)cnn4c3)c2C#N)CC1 [Example 370, 6-(5-cyano-1-(1-methylpiperidin-4-yl)-1H-pyrazol-4-yl)-4-((3-fluoropyridin-2-yl)thio)pyrazolo[1,5-a]pyridine-3-carbonitrile] | 35 nM |
| Cc1cc(Sc2cc(-c3cnn(C4CCN(C)CC4)c3C)cn3ncc(C#N)c23)c(C#N)cc1F [Example 371, 4-((2-cyano-4-fluoro-5-methylphenyl)thio)-6-(5-methyl-1-(1-methylpiperidin-4-yl)-1H-pyrazol-4-yl)pyrazolo[1,5-a]pyridine-3-carbonitrile] | 5 nM |
| Cc1c(-c2cc(Sc3ccc(F)cc3C#N)c3c(C#N)cnn3c2)cnn1[C@@H]1C[C@H]2CC[C@@H](C1)N2C(=O)CO [Example 372, 4-((2-cyano-4-fluorophenyl)thio)-6-(1-((1R,3s,5S)-8-(2-hydroxyacetyl)-8-azabicyclo[3.2.1]octan-3-yl)-5-methyl-1H-pyrazol-4-yl)pyrazolo[1,5-a]pyridine-3-carbonitrile] | 1 nM |
| CC(=O)N1[C@@H]2CC[C@H]1C[C@H](n1ncc(-c3cc(Sc4ccc(F)cc4C#N)c4c(C#N)cnn4c3)c1C)C2 [Example 373, 6-(1-((1R,3s,5S)-8-acetyl-8-azabicyclo[3.2.1]octan-3-yl)-5-methyl-1H-pyrazol-4-yl)-4-((2-cyano-4-fluorophenyl)thio)pyrazolo [1,5-a]pyridine-3-carbonitrile] | 2 nM |
| Cc1noc(Cn2cc(-c3cc(Sc4ccccc4C#N)c4c(C#N)cnn4c3)cn2)n1 [Example 374, 4-((2-cyanophenyl)thio)-6-(1-((3-methyl-1,2,4-oxadiazol-5-yl)methyl)-1H-pyrazol-4-yl)pyrazolo[1,5-a]pyridine-3-carbonitrile] | 1 nM |
| Cn1ccc(Cn2cc(-c3cc(Sc4ccccc4C#N)c4c(C#N)cnn4c3)cn2)n1 [Example 375, 4-((2-cyanophenyl)thio)-6-(1-((1-methyl-1H-pyrazol-3-yl)methyl)-1H-pyrazol-4-yl)pyrazolo[1,5-a]pyridine-3-carbonitrile] | 0.6 nM |
| Cc1c(-c2cc(Sc3ncc(Cl)cc3F)c3c(C#N)cnn3c2)cnn1C1CCN(C)CC1 [Example 376, 4-((5-chloro-3-fluoropyridin-2-yl)thio)-6-(5-methyl-1-(1-methylpiperidin-4-yl)-1H-pyrazol-4-yl)pyrazolo[1,5-a]pryidine-3-carbonitrile] | 5.5 nM |
| Cc1cnc(Sc2cc(-c3cnn(C4CCN(C)CC4)c3C)cn3ncc(C#N)c23)c(F)c1 [Example 377, 4-((3-fluoro-5-methylpyridin-2-yl)thio)-6-(5-methyl-1-(1-methylpiperidin-4-yl)-1H-pyrazol-4-yl)pyrazolo[1,5-a]pyridine-3-carbonitrile] | 11 nM |
| Cc1ccc(Sc2cc(-c3cnn(C4CCN(C)CC4)c3C)cn3ncc(C#N)c23)c(C#N)c1 [Example 378, 4-((2-cyano-4-methylphenyl)thio)-6-(5-methyl-1-(1-methylpiperidin-4-yl)-1H-pyrazol-4-yl)pyrazolo[1,5-a]pyridine-3-carbonitrile] | 4 nM |
| COc1ccc(Sc2cc(-c3cnn(C4CCN(C)CC4)c3C)cn3ncc(C#N)c23)c(C#N)c1 [Example 379, 4-((2-cyano-4-methoxyphenyl)thio)-6-(5-methyl-1-(1-methylpiperidin-4-yl)-1H-pyrazol-4-yl)pyrazolo[1,5-a]pyridine-3-carbonitrile] | 25 nM |
| Cc1c(-c2cc(Sc3ccc(F)cc3C#N)c3c(C#N)cnn3c2)cnn1C1CCN([C@@H](C)CO)CC1 [Example 380, (S)-4-((2-cyano-4-fluorophenyl)thio)-6-(1-(1-(1-hydroxypropan-2-yl)piperidin-4-yl)-5-methyl-1H-pyrazol-4-yl)pyrazolo[1,5-a]pyridine-3-carbonitrile] | 1 nM |
| Cc1c(-c2cc(Sc3ccc(F)cc3C#N)c3c(C#N)cnn3c2)cnn1C1CCN([C@H](C)CO)CC1 [Example 381, (R)-4-((2-cyano-4-fluorophenyl)thio)-6-(1-(1-(1-hydroxypropan-2-yl)piperidin-4-yl)-5-methyl-1H-pyrazol-4-yl)pyrazolo[1,5-a]pyridine-3-carbonitrile] | 1 nM |
